From the supplement of paper PMC4862054

Assays:
Assay in all cases: normalised viability (% of control), CellTiter-Blue; higher = more viable cells (about 100 = DMSO control)
Settings in all cases: incubation time: 72 h
MDA-MB-231 [1] = test system: MDA-MB-231
How it was run: (§1)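 Each value is normalised viability at a single listed concentration of the series. Breast cancer cell lines in 384-well plates were incubated 72 h with compound and read by CellTiter-Blue fluorescence at 560/590 nm, with vehicle set to 100 and a positive kill control to 0 on every plate.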

HCC1937 [2] = test system: HCC1937
How it was run: as §1

CAL-51 [3] = test system: CAL-51
How it was run: as §1

DU-4475 [4] = test system: DU-4475
How it was run: as §1

SK-BR-3 [5] = test system: SK-BR-3
How it was run: as §1

BT-474 [6] = test system: BT-474
How it was run: as §1

HCC1599 [7] = test system: HCC1599
How it was run: as §1

MDA-MB-231 [8] = test system: MDA-MB-231; remark: listed apart in the source
How it was run: as §1

CAL-120 = test system: CAL-120
How it was run: as §1

HCC1937 [9] = test system: HCC1937; remark: listed apart in the source
How it was run: as §1

Hs578T = test system: Hs578T
How it was run: as §1

CAL-85-1 [10] = test system: CAL-85-1
How it was run: as §1

CAL-51 [11] = test system: CAL-51; remark: listed apart in the source
How it was run: as §1

MDA-MB-453 = test system: MDA-MB-453
How it was run: as §1

MDA-MB-436 [12] = test system: MDA-MB-436
How it was run: as §1

BT-549 = test system: BT-549
How it was run: as §1

HDQ-P1 [13] = test system: HDQ-P1
How it was run: as §1

DU-4475 [14] = test system: DU-4475; remark: listed apart in the source
How it was run: as §1

CAL-148 = test system: CAL-148
How it was run: as §1

SK-BR-3 [15] = test system: SK-BR-3; remark: listed apart in the source
How it was run: as §1

HCC1143 [16] = test system: HCC1143
How it was run: as §1

BT-474 [17] = test system: BT-474; remark: listed apart in the source
How it was run: as §1

MFM-223 = test system: MFM-223
How it was run: as §1

MDA-MB-468 = test system: MDA-MB-468
How it was run: as §1

HCC1599 [18] = test system: HCC1599; remark: listed apart in the source
How it was run: as §1

HCC1937 [19] = test system: HCC1937; remark: listed apart in the source
Procedure: (§2)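 DSRT, CellTiter-Blue viability, 72 h incubation. Signal is normalised to DMSO and benzethonium chloride controls. Value is the normalised response at dose 3.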

CAL-85-1 [20] = test system: CAL-85-1; remark: listed apart in the source
Procedure: as §2

CAL-51 [21] = test system: CAL-51; remark: listed apart in the source
Procedure: as §2

MDA-MB-436 [22] = test system: MDA-MB-436; remark: listed apart in the source
Procedure: as §2

HDQ-P1 [23] = test system: HDQ-P1; remark: listed apart in the source
Procedure: as §2

SK-BR-3 [24] = test system: SK-BR-3; remark: listed apart in the source
Procedure: as §2

HCC1143 [25] = test system: HCC1143; remark: listed apart in the source
Procedure: as §2

BT-474 [26] = test system: BT-474; remark: listed apart in the source
Procedure: as §2

HCC1599 [27] = test system: HCC1599; remark: listed apart in the source
Procedure: as §2

## O=C1NC(=O)[C@@H](c2cn3c4c(cccc24)CCC3)[C@@H]1c1c[nH]c2ccccc12 [Tivantinib]
MDA-MB-231 [1]; 1000 nM
  normalised viability: 29.8%
HCC1937 [2]; 1000 nM
  normalised viability: 30.4%
CAL-51 [3]; 10 nM
  normalised viability: 108%
DU-4475 [4]; 10 nM
  normalised viability: 82.9%
SK-BR-3 [5]; 1000 nM
  normalised viability: 21.5%
BT-474 [6]; 1000 nM
  normalised viability: 45.4%
HCC1599 [7]; 1000 nM
  normalised viability: 79%
MDA-MB-231 [8]; 100 nM
  normalised viability: 105%
CAL-120; 100 nM
  normalised viability: 79.8%
HCC1937 [9]; 100 nM
  normalised viability: 64.6%
Hs578T; 100 nM
  normalised viability: 114%
CAL-85-1 [10]; 3 nM
  normalised viability: 95.7%
CAL-51 [11]; 3 nM
  normalised viability: 104%
MDA-MB-453; 3 nM
  normalised viability: 108%
MDA-MB-436 [12]; 100 nM
  normalised viability: 56.6%
BT-549; 100 nM
  normalised viability: 96.5%
HDQ-P1 [13]; 3 nM
  normalised viability: 120%
DU-4475 [14]; 3 nM
  normalised viability: 89.2%
CAL-148; 3 nM
  normalised viability: 93%
SK-BR-3 [15]; 100 nM
  normalised viability: 99.9%
HCC1143 [16]; 100 nM
  normalised viability: 93%
BT-474 [17]; 100 nM
  normalised viability: 106%
MFM-223; 100 nM
  normalised viability: 87.2%
MDA-MB-468; 100 nM
  normalised viability: 103%
HCC1599 [18]; 100 nM
  normalised viability: 95.7%
HCC1937 [19]; 10 nM
  normalised viability: 101%
CAL-85-1 [20]; 1 nM
  normalised viability: 105%
CAL-51 [21]; 1 nM
  normalised viability: 106%
MDA-MB-436 [22]; 10 nM
  normalised viability: 101%
HDQ-P1 [23]; 1 nM
  normalised viability: 109%
SK-BR-3 [24]; 10 nM
  normalised viability: 77.3%
HCC1143 [25]; 10 nM
  normalised viability: 87.8%
BT-474 [26]; 10 nM
  normalised viability: 109%
HCC1599 [27]; 10 nM
  normalised viability: 98.4%

## CC(C)(C#N)c1cc(Cn2cncn2)cc(C(C)(C)C#N)c1 [Anastrozole]
MDA-MB-231 [1]; 10000 nM
  normalised viability: 106%
HCC1937 [2]; 10000 nM
  normalised viability: 90.9%
CAL-51 [3]; 100 nM
  normalised viability: 111%
DU-4475 [4]; 100 nM
  normalised viability: 98.7%
SK-BR-3 [5]; 10000 nM
  normalised viability: 102%
BT-474 [6]; 10000 nM
  normalised viability: 122%
HCC1599 [7]; 10000 nM
  normalised viability: 104%
MDA-MB-231 [8]; 1000 nM
  normalised viability: 80.4%
CAL-120; 1000 nM
  normalised viability: 89.5%
HCC1937 [9]; 1000 nM
  normalised viability: 95.4%
Hs578T; 1000 nM
  normalised viability: 95.7%
CAL-85-1 [10]; 30 nM
  normalised viability: 86.5%
CAL-51 [11]; 30 nM
  normalised viability: 106%
MDA-MB-453; 30 nM
  normalised viability: 91%
MDA-MB-436 [12]; 1000 nM
  normalised viability: 83.6%
BT-549; 1000 nM
  normalised viability: 99.1%
HDQ-P1 [13]; 30 nM
  normalised viability: 89.2%
DU-4475 [14]; 30 nM
  normalised viability: 94.2%
CAL-148; 30 nM
  normalised viability: 96.8%
SK-BR-3 [15]; 1000 nM
  normalised viability: 98.7%
HCC1143 [16]; 1000 nM
  normalised viability: 83.5%
BT-474 [17]; 1000 nM
  normalised viability: 101%
MFM-223; 1000 nM
  normalised viability: 90.4%
MDA-MB-468; 1000 nM
  normalised viability: 101%
HCC1599 [18]; 1000 nM
  normalised viability: 88.3%
HCC1937 [19]; 100 nM
  normalised viability: 93.1%
CAL-85-1 [20]; 10 nM
  normalised viability: 90.7%
CAL-51 [21]; 10 nM
  normalised viability: 109%
MDA-MB-436 [22]; 100 nM
  normalised viability: 96%
HDQ-P1 [23]; 10 nM
  normalised viability: 99.2%
SK-BR-3 [24]; 100 nM
  normalised viability: 77.3%
HCC1143 [25]; 100 nM
  normalised viability: 100%
BT-474 [26]; 100 nM
  normalised viability: 101%
HCC1599 [27]; 100 nM
  normalised viability: 102%
